Assay results from patent publication US9145376B2, “Quinazolinone inhibitors of dynein” (The Rockefeller University, priority 2011, dated 2015).

Key:
[1] = system: Hh pathway (Gli-responsive firefly luciferase reporter in Shh-LIGHT2 cells); assay: Shh-LIGHT2 assay for Hh pathway activity; format: cell-based; settings: 10% Shh-conditioned medium, 24 hours, firefly/Renilla luciferase ratio
Procedure: Shh-N-conditioned medium was prepared as described by Chen et al., Proc. Natl. Acad. Sci. U.S.A. 99, 14071 (2002). Shh-LIGHT2 cells [J. Taipale et al., Nature 406, 1005 (2000)], an NIH-3T3-based cell line containing a stably integrated Gli-responsive firefly luciferase reporter and a constitutive thymidine kinase promoter-driven Renilla luciferase expression construct (pRLTK, Promega), were cultured in DMEM containing 10% calf serum. 100 U/mL penicillin, and 0.1 mg/mL streptomycin. The cells were seeded into 96-well plates at a density of 30,000 cells/well, and the following day they were treated with individual compounds or DMSO in DMEM containing 0.5% calf serum, 10% Shh-conditioned medium, and the antibiotics described above. After being cultured for another 24 hours, the cells were lysed and their firefly and Renilla luciferase activities were determined using, a dual luciferase reporter kit (Promega) and a microplate luminometer (Veritas). Average values representing the firefly luciferase/Renilla luciferase ratio from triplicate samples were used to construct dose response profiles for each compound. Dose-response data from three separate experiments were independently curve-fitted with a variable slope, sigmoidal dose-response algorithm using Prism software, and the resulting IC50 values were used to generate an average IC50 for each compound.

[2] = system: primary cilia of Shh-EGFP cells; assay: Quantitative assessment of ciliogenesis (Arl13b staining, cilia size); format: cell-based; settings: 24 hours, read-out: Primary cilia size (percent of DMSO control at a 30 μM dose)
Procedure: Shh-EGFP cells [J. Hyman et al., Proc. Natl. Acad. Sci. U.S.A., (2009)], an NIH-3T3-based cell line containing a stably integrated Gli-responsive enhanced green fluorescent protein reporter, were maintained in DMEM containing 10% calf serum, 100 U/mL penicillin, and 0.1 mg/mL streptomycin. The cells were seeded into 24-well plates containing poly-D-lysine-coated 12-mm glass coverslips at a density of 30,000 cells/well and cultured for 36 hours. The cells were transferred into DMEM containing 0.5% calf serum, the antibiotics described above, and either individual compounds at a 30 μM concentration or 0.3% DMSO. After being cultured for another 24 hours, the cells were fixed in PBS containing 4% paraformaldehyde for 10 minutes at room temperature, washed 3×5 minutes with PBS, permeabilized with PBS containing 0.3% Triton X-100 for 5 minutes, and blocked overnight at 4° C. with PBS containing 5% normal goat serum, 0.1% Triton X-100, and 0.05% sodium azide. The coverslips were then incubated for 90 minutes at room temperature with blocking buffer containing rabbit polyclonal anti-Arl 13b antibody (1:3000 dilution), washed 4×5 minutes with PBS containing 0.1% Triton X-100, and incubated for 60 minutes with blocking buffer containing Alexa Fluor 488-conjugated goat polyclonal anti-rabbit IgG antibody (1:300 dilution; Invitrogen, A-11034). Following this secondary antibody incubation, nuclei were stained by incubating the cells 2×10 minutes with PBS containing 0.1% Triton X-100 and […] 4′,6-diamidino-2-phenylindole (DAPI) and washing them 2×5 minutes with PBS. The coverslips were subsequently mounted onto slides using Prolong Gold Antifade Reagent (Invitrogen) and imaged using an HC Plan Apochromat CS 20×/0.70 NA oil immersion objective on a Leica DMI6000B compound microscope equipped with a Photometric CoolSNAP HQ CCD camera and Metamorph software (Molecular Devices). Images of Arl13b staining in DMSO-treated cells were manually examined to establish a minimum threshold value for cilia staining intensity. ImageJ software was then used to define objects consisting of two or more adjacent pixels with a signal intensity equal to or greater than this threshold value, and the total object area within an individual image was used to estimate the total pixel area of primary cilia. Corresponding images of DAPI staining were processed in parallel using CellProfiler software to establish the number of nuclei per image. The average cilia size per cell within an individual image was then determined by dividing the total ciliary pixel area by the number of nuclei. Ten individual images, each containing approximately 150 cells. were used to quantify the average cilia size for each experimental condition.
Shh-EGFP cells, an NIH-3T3-based cell line containing a stably integrated Gli-responsive enhanced green fluorescent protein reporter, were maintained in DMEM containing 10% (v/v) calf serum, 100 U/mL penicillin, and 0.1 mg/mL streptomycin. The cells were seeded into 24-well plates containing poly-D-lysine-coated 12-mm glass coverslips at a density of 30,000 cells/well and cultured for 36 hours. The cells were transferred into DMEM containing 0.5% (v/v) calf serum, the antibiotics described above, and either individual dihydroquinazolinones at a 30 μM concentration or an equivalent amount of DMSO vehicle (0.3%, v/v). After being cultured for another 24 hours, the cells were fixed in PBS containing 4% (w/v) paraformaldehyde for 10 min at room temperature, washed 3×5 min with PBS, permeabilized with PBS containing 0.3% (v/v) Triton X-100 for 5 min, and blocked overnight at 4° C. with PBS containing 5% (v/v) normal goat serum, 0.1% (v/v) Triton X-100, and 0.05% (w/v) sodium azide. […]

[3] = system: Gli3 processing in Shh-EGFP cells; assay: Quantitative assessment of Hh ligand-dependent Gli3 processing; format: cell-based; settings: Shh-EGFP cells stimulated with Shh-N, 16 hours
Procedure: Shh-EGFP cells were seeded into 12-well plate at a density of 120,000 cells/well in DMEM containing 10% calf serum. 100 U/mL penicillin, and 0.1 mg/mL streptomycin. After being cultured for 24 hours, the cells were transferred into DMEM containing 0.5% calf serum, 10% Shh-conditioned medium, the antibiotics described above, and either individual compounds or DMSO. The cells were cultured for an additional 16 hours, washed with PBS, and then lysed by incubation on ice with SDS-PAGE loading buffer composed of 8% glycerol, 20 mM Tris-HCl, pH 6.8, 2% SDS, 100 mM DTT, 1 mM PMSF, 20 mM NaF, 2 mM Na3VO4, and an EDTA-free protease inhibitor cocktail (Roche). The lysed samples were heated to 100° C. for 7 minutes, loaded onto 3-8% Criterion XT Tris-Acetate polyacrylamide gels (Bio-Rad), electrophoresed in XT Tricine buffer (Bio-Rad), and transferred onto PVDF membranes. The membranes were dehydrated with methanol and probed overnight at 4° C. with goat polyclonal anti-Gli3 antibody (0.4 μg/mL: R & D Systems, AF3690) in PBS containing 4% non-fat dry milk and 0.1% Tween-20 (immunoblot blocking buffer). The blots were then washed 4×1 minutes in PBS and incubated with horseradish peroxidase-conjugated bovine polyclonal anti-goat IgG antibody (0.04 μg/mL, Jackson ImmunoResearch, 805-035-180) in immunoblot blocking buffer for 1 hour at room temperature. The membranes were next washed 4×1 minutes in PBS and visualized using SuperSignal West Dura Extended Duration substrate (Thermo Scientific) and a ChemiDoc XRS imaging system (Bio-Rad). Band intensities of Gli3FL and Gli3R where quantified using Quantity One software (Bio-Rad), and five independent experiments were used to determine the average Gli3FL/Gli3R ratio for each compound.

[4] = system: medulloblastoma; settings: human patient; cited from earlier work
[5] = system: basal cell carcinoma; settings: 33 human patients; cited from earlier work

| Structure (SMILES) | IC50 [1] [µM] | further results |
| --- | --- | --- |
| N#C/C(C(=O)c1ccc(Br)cc1)=C1\NC(=O)c2ccccc2N1 [Example 3] | 5 | – |
| N#C/C(C(=O)c1ccc(I)cc1)=C1\NC(=O)c2ccccc2N1 [Example 4] | 4.5 | – |
| Cc1ccc(C(=O)/C(C#N)=C2/NC(=O)c3ccccc3N2)cc1 [Example 5] | 15 | – |
| CC(C)Cc1ccc(C(=O)/C(C#N)=C2/NC(=O)c3ccccc3N2)cc1 [Example 6] | 6.5 | – |
| COc1ccc(C(=O)/C(C#N)=C2/NC(=O)c3ccccc3N2)cc1 [Example 8] | 30 | – |
| N#C/C(C(=O)c1ccc([N+](=O)[O-])cc1)=C1\NC(=O)c2ccccc2N1 [Example 9] | 25 | – |
| N#C/C(C(=O)c1ccccc1Cl)=C1\NC(=O)c2ccccc2N1 [Example 10, 3-(2-chlorophenyl)-3-oxo-2-(4-oxo-3,4-dihydroquinazolin-2(1H)-ylidene)propanenitrile] | 25 | activity at 30 µM [2]: 93% |
| N#C/C(C(=O)c1ccccc1F)=C1\NC(=O)c2ccccc2N1 [Example 11] | 30 | – |
| N#C/C(C(=O)c1ccccc1Br)=C1\NC(=O)c2ccccc2N1 [Example 12] | 15 | – |
| N#C/C(C(=O)c1ccccc1I)=C1\NC(=O)c2ccccc2N1 [Example 13] | 20 | – |
| Cc1ccccc1C(=O)/C(C#N)=C1/NC(=O)c2ccccc2N1 [Example 14] | 30 | – |
| COc1ccccc1C(=O)/C(C#N)=C1/NC(=O)c2ccccc2N1 [Example 15] | > 30 | – |
| N#C/C(C(=O)c1cccc(Cl)c1)=C1\NC(=O)c2ccccc2N1 [Example 17, 3-(3-chlorophenyl)-3-oxo-2-(4-oxo-3,4-dihydroquinazolin-2 (1H)-ylidene)propanenitrile] | 5.5 | activity at 30 µM [2]: 68% |
| N#C/C(C(=O)c1ccc(Cl)c(Cl)c1)=C1\NC(=O)c2ccccc2N1 [Example 18] | 3 | activity at 30 µM [2]: 16% |
| N#C/C(C(=O)c1cc(Cl)cc(Cl)c1)=C1\NC(=O)c2ccccc2N1 [Example 19] | 3 | activity at 30 µM [2]: 65% |
| COc1cc(C(=O)/C(C#N)=C2/NC(=O)c3ccccc3N2)cc(OC)c1OC [Example 20] | > 30 | – |
| N#C/C(C(=O)c1cccc2ccccc12)=C1\NC(=O)c2ccccc2N1 [Example 21] | 20 | – |
| Cc1cccc(C(=O)/C(C#N)=C2/NC(=O)c3ccccc3N2)c1 [Example 22] | 5 | – |
| O=C(/C=C1/NC(=O)c2ccccc2N1)c1ccc(Cl)cc1Cl [Example 23] | 4.4 | activity at 30 µM [2]: 70% |
| N#C/C(=C\c1ccc(Cl)cc1Cl)C1NC(=O)c2ccccc2N1 (stereo not drawn) [Example 24] | > 50 | activity at 30 µM [2]: 104% |
| N#C/C(C(=O)c1ccc(Cl)cc1Cl)=C1\NC(=O)c2c(Cl)cccc2N1 [Example 25, 2-(5-chloro-4-oxo-3,4-dihydroquinazolin-2(1H)-ylidene)-3-(2,4-dichlorophenyl)-3-oxo-propanenitrile] | 11 | activity at 30 µM [2]: 32%; Gli3FL/Gli3R ratio [3]: altered the Gli3FL/Gli3R ratio; Shh-N-dependent Gli3FL phosphorylation [3]: reduced |
| Cc1cccc2c1C(=O)N/C(=C(\C#N)C(=O)c1ccc(Cl)cc1Cl)N2 [Example 26] | 10 | – |
| N#C/C(C(=O)c1ccc(Cl)cc1Cl)=C1\NC(=O)c2cc(Cl)ccc2N1 [Example 27, 2-(6-chloro-4-oxo-3,4-dihydroquinazolin-2(1H)-ylidene)-3-(2,4-dichlorophenyl)-3-oxopropanenitrile] | 6.1 | activity at 30 µM [2]: 11%; Gli3FL/Gli3R ratio [3]: altered the Gli3FL/Gli3R ratio; Shh-N-dependent Gli3FL phosphorylation [3]: reduced |
| N#C/C(C(=O)c1ccc(Cl)cc1Cl)=C1\NC(=O)c2cc(I)ccc2N1 [Example 28] | 6 | – |
| N#C/C(C(=O)c1ccc(Cl)cc1Cl)=C1\NC(=O)c2cc(C#CCN)ccc2N1 [Example 29] | 20 | – |
| CC(=O)NCC#Cc1ccc2c(c1)C(=O)N/C(=C(\C#N)C(=O)c1ccc(Cl)cc1Cl)N2 [Example 30] | 30 | – |
| N#C/C(C(=O)c1ccc(Cl)cc1Cl)=C1\NC(=O)c2ccc(I)cc2N1 [Example 32] | 12 | – |
| COc1ccc2c(c1)N/C(=C(/C#N)C(=O)c1ccc(Cl)cc1Cl)NC2=O [Example 33] | 15 | – |
| CS(=O)(=O)c1ccc(C(=O)Nc2ccc(Cl)c(-c3ccccn3)c2)c(Cl)c1 [GDC-0449] | – | tumor response, medulloblastoma [4]: regression of medulloblastoma; tumor response, basal cell carcinoma [5]: clinically significant response |
